Results reported in patent US20240216352A1 (priority 2022, published 2024).

Legend:
healthy participants = experiment: Phase 1 Part A single ascending dose (SAD) and FE/pH cohort: safety, blood pressure; assay type: in vivo, human; conditions: for Mean SBP: in mmHg (unit assumed); for Maximum of mean (±SD) reduction in DBP from baseline / Maximum of mean (±SD) reduction in SBP from baseline / Time of maximum mean DBP reduction / Time of maximum mean SBP reduction: within 12 h post dose
Method: The study was performed in 3 parts in 112 healthy male and female participants, including 24 Japanese participants. Female participants were to be not of childbearing potential. The present study was designed to evaluate the safety and tolerability, PK, and exploratory PD of an oral suspension of Compound A. Parts A and B (Cohort B1 only) enrolled healthy participants and was conducted at a site in The Netherlands and Part B (Cohort B2 to B5) enrolled healthy non-Japanese participants and was conducted at a site in the United Kingdom (UK). Part C enrolled healthy Japanese participants and was conducted at the same site in the UK.
Part A was an SAD study in a planned number of 6 sequential dose escalation cohorts (3, 10, 30, 100, 150, or 250 mg) of 8 healthy participants (6 active+2 placebo) each, under fasted conditions. Eligible participants in Part A (excluding those in Cohort A7 [food effect (FE)/pH cohort]) received a single administration of study drug (Compound A or placebo) under fasted conditions. In Cohort A1 to Cohort A6, sentinel dosing was employed (1 active+1 placebo, followed after 48 hours by the remaining participants of the cohort [5 active+1 placebo]). […] In addition to the 6 ascending dose cohorts, a cohort of 6 healthy participants (Cohort A7; 6 active, 100 mg Compound A) was included to assess the effect of food and pH on the bioavailability of Compound A in a 3-period, open-label, fixed-sequence, crossover design (FE/pH cohort).
Physical examinations, vital sign measurements (including orthostasis testing in Cohort A6, Cohort B3 to B5, and C1 to C3 at selected time points), 12-lead electrocardiogram (ECG), and clinical laboratory evaluations were performed at selected times throughout the study. In addition, Holter monitoring was performed for the first 24 hours post dose on Day 1 in Part A (not in FE/pH cohort), and also for the first 24 hours post dose on Day 1 and Day 14 in Parts B and C. Participants were closely monitored for adverse events (AEs). Blood samples were collected for up to 14 days (follow-up visit) after (last) study drug administration for PK analysis. In addition, blood and urine were collected for exploratory biomarker assessments and for biobanking of samples for potential analyses. Urine was collected for potential PK analysis for up to 96 hours after a single dose of Compound A or placebo was administered in the SAD part, and for up to 24 hours after the first (morning) dose of study drug on Day 1 and for up to 24 hours after the last (morning) dose of study drug on Day 14 in the MAD parts.

LPA1 [1] = molecular target: T1, LPA1 (Homo sapiens, UniProt Q92633); experiment: LPA1 antagonism (Kb) in CHO cells overexpressing human LPA1; assay type: cell-based; design: expressed in transfected cells; host or cells: CHO cells
Text: (§1) Compound A is currently in clinical development as a therapy for IPF and PF-ILD.

LPA1 [2] = molecular target: T1, LPA1; experiment: LPA1 antagonism (Kb) in normal human lung fibroblasts; assay type: cell-based; design: LPA1Kb=5.9 nM in normal human lung fibroblasts; endogenous in cells; host or cells: normal human lung fibroblasts
Text: as §1

[3] = 100 mg Fasted + Famotidine, D 1 2 h
[4] = 100 mg Fasted + Famotidine, D 1 4 h
[5] = 100 mg Fasted + Famotidine, D 1 8 h
[6] = 100 mg Fasted + Famotidine, D 2 24 h
[7] = 100 mg fasted + famotidine (A7)

T1 sequence (Q92633 whole entry): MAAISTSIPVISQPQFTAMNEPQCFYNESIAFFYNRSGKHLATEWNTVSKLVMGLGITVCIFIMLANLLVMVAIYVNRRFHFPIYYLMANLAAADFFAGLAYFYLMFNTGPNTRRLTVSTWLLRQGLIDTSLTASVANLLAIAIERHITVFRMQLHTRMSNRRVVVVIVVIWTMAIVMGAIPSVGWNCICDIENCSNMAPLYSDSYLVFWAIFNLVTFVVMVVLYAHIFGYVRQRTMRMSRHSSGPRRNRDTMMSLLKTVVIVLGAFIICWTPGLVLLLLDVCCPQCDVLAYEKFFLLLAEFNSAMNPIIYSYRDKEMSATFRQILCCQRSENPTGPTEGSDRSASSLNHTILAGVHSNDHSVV

## CCCN(C)C(=O)OCc1c(-c2ccc(O[C@H]3CCC[C@H](C(=O)O)C3)c(C)n2)nnn1C [Compound A, (1S,3S)-3-((2-methyl-6-(1-methyl-5-(((methyl(propyl)carbamoyl)-oxy)methyl)-1H-1,2,3-triazol-4-yl)pyridin-3-yl)oxy)cyclohexane-1-carboxylic acid]
Healthy participants; [3]
  Mean DBP: 67.2 mmHg
  Mean SBP: 111.3
Healthy participants; [4]
  Mean DBP: 65.3 mmHg
  Mean SBP: 106.5
Healthy participants; [5]
  Mean DBP: 63.2 mmHg
  Mean SBP: 105.0
Healthy participants; [6]
  Mean DBP: 71.7 mmHg
  Mean SBP: 118.7
Healthy participants; 100 mg Fasted, D 1 2 h
  Mean DBP: 67.2 mmHg
  Mean SBP: 107.5
Healthy participants; 100 mg Fasted, D 1 4 h
  Mean DBP: 64.2 mmHg
  Mean SBP: 103.8
Healthy participants; 100 mg Fasted, D 1 8 h
  Mean DBP: 63 mmHg
  Mean SBP: 98.0
Healthy participants; 100 mg Fasted, D 2 24 h
  Mean DBP: 69.3 mmHg
  Mean SBP: 115.2
Healthy participants; 100 mg Fed, D 1 2 h
  Mean DBP: 57.2 mmHg
  Mean SBP: 100.5
Healthy participants; 100 mg Fed, D 1 4 h
  Mean DBP: 58.2 mmHg
  Mean SBP: 104.2
Healthy participants; 100 mg Fed, D 1 8 h
  Mean DBP: 58.8 mmHg
  Mean SBP: 100.3
Healthy participants; 100 mg Fed, D 2 24 h
  Mean DBP: 69.3 mmHg
  Mean SBP: 112.8
Healthy participants; 100 mg fasted (A7)
  Maximum of mean (±SD) reduction in DBP from baseline: 12.5 ± 7.06 mmHg
  Maximum of mean (±SD) reduction in SBP from baseline: 25.8 ± 9.54 mmHg
  Time of maximum mean DBP reduction: 5 h
  Time of maximum mean SBP reduction: 8 h
Healthy participants; [7]
  Maximum of mean (±SD) reduction in DBP from baseline: 11.8 ± 8.40 mmHg
  Maximum of mean (±SD) reduction in SBP from baseline: 19.3 ± 17.41 mmHg
  Time of maximum mean DBP reduction: 6 h
  Time of maximum mean SBP reduction: 6 h
Healthy participants; 100 mg fed (A7)
  Maximum of mean (±SD) reduction in DBP from baseline: 12.7 ± 4.18 mmHg
  Maximum of mean (±SD) reduction in SBP from baseline: 18.5 ± 12.94 mmHg
  Time of maximum mean DBP reduction: 5 h
  Time of maximum mean SBP reduction: 6 h
Healthy participants; Cohort A6, 250 mg single dose, 2 sentinel participants dosed
  Dose-limiting events: dose-limiting events observed in a sentinel participant
Healthy participants; SAD 3 mg (A1)
  Maximum of mean (±SD) reduction in SBP from baseline: 5.2 ± 3.43 mmHg
  Time of maximum mean SBP reduction: 2 h
Healthy participants; SAD 3 mg, D 1 2 h
  Mean DBP: 68.3 mmHg
  Mean SBP: 119.5
Healthy participants; SAD 3 mg, D 1 4 h
  Mean DBP: 69.5 mmHg
  Mean SBP: 120.3
Healthy participants; SAD 3 mg, D 1 8 h
  Mean DBP: 68 mmHg
  Mean SBP: 124.5
Healthy participants; SAD 3 mg, D 2 24 h
  Mean DBP: 68.7 mmHg
  Mean SBP: 118.8
Healthy participants; SAD 10 mg (A2)
  Maximum of mean (±SD) reduction in DBP from baseline: 8.8 ± 9.91 mmHg
  Maximum of mean (±SD) reduction in SBP from baseline: 9.5 ± 16.13 mmHg
  Time of maximum mean DBP reduction: 6 h
  Time of maximum mean SBP reduction: 8 h
Healthy participants; SAD 10 mg, D 1 2 h
  Mean DBP: 67.7 mmHg
  Mean SBP: 112.2
Healthy participants; SAD 10 mg, D 1 4 h
  Mean DBP: 68.7 mmHg
  Mean SBP: 110.2
Healthy participants; SAD 10 mg, D 1 8 h
  Mean DBP: 63 mmHg
  Mean SBP: 109.5
Healthy participants; SAD 10 mg, D 2 24 h
  Mean DBP: 71.7 mmHg
  Mean SBP: 118.5
Healthy participants; SAD 30 mg (A3)
  Maximum of mean (±SD) reduction in DBP from baseline: 6.8 ± 1.72 mmHg
  Maximum of mean (±SD) reduction in SBP from baseline: 11.7 ± 7.61 mmHg
  Time of maximum mean DBP reduction: 5 h
  Time of maximum mean SBP reduction: 4 h
Healthy participants; SAD 30 mg, D 1 2 h
  Mean DBP: 66.2 mmHg
  Mean SBP: 107.5
Healthy participants; SAD 30 mg, D 1 4 h
  Mean DBP: 65.2 mmHg
  Mean SBP: 106.0
Healthy participants; SAD 30 mg, D 1 8 h
  Mean DBP: 65.2 mmHg
  Mean SBP: 113.8
Healthy participants; SAD 30 mg, D 2 24 h
  Mean DBP: 71 mmHg
  Mean SBP: 120.2
Healthy participants; SAD 100 mg (A4)
  Maximum of mean (±SD) reduction in DBP from baseline: 9.7 ± 8.64 mmHg
  Maximum of mean (±SD) reduction in SBP from baseline: 15.5 ± 11.59 mmHg
  Time of maximum mean DBP reduction: 5 h
  Time of maximum mean SBP reduction: 2 h
Healthy participants; SAD 100 mg, D 1 2 h
  Mean DBP: 59 mmHg
  Mean SBP: 101.0
Healthy participants; SAD 100 mg, D 1 4 h
  Mean DBP: 58.7 mmHg
  Mean SBP: 101.3
Healthy participants; SAD 100 mg, D 1 8 h
  Mean DBP: 56.3 mmHg
  Mean SBP: 105.0
Healthy participants; SAD 100 mg, D 2 24 h
  Mean DBP: 66 mmHg
  Mean SBP: 114.2
Healthy participants; SAD 150 mg (A5)
  Maximum of mean (±SD) reduction in DBP from baseline: 12.7 ± 5.61 mmHg
  Maximum of mean (±SD) reduction in SBP from baseline: 16.5 ± 8.41 mmHg
  Time of maximum mean DBP reduction: 6 h
  Time of maximum mean SBP reduction: 6 h
Healthy participants; SAD 150 mg, D 1 2 h
  Mean DBP: 58.2 mmHg
  Mean SBP: 105.0
Healthy participants; SAD 150 mg, D 1 4 h
  Mean DBP: 56 mmHg
  Mean SBP: 101.5
Healthy participants; SAD 150 mg, D 1 8 h
  Mean DBP: 57.8 mmHg
  Mean SBP: 107.2
Healthy participants; SAD 150 mg, D 2 24 h
  Mean DBP: 66.2 mmHg
  Mean SBP: 114.7
Healthy participants; SAD cohorts
  Effect on SBP, DBP and heart rate: decreased SBP and DBP dose dependently, reversibly, and mostly asymptomatically with minimal effect on heart rate
Healthy participants; single and multiple dose oral administration to healthy participants
  Safety and tolerability: generally safe and well tolerated
LPA1 [1]
  Kb: 6.9 nM
LPA1 [2]
  Kb: 5.9 nM
